Three molecules from patent US10036741B2, “Systems, models and methods for identifying and evaluating skin-active agents effective for treating an array of skin disorders” (The Procter & Gamble Company, priority 2012, dated 2018) can be followed below.

The test system of assay [1] is unhealthy skin gene expression signature. Nature of the assay: Connectivity mapping (C-map) query of stored skin instances with the unhealthy skin gene expression signature. The assay is classed as cell-based, human. The following applies: text statement on highest-ranked results of Table C. The text has this: Referring to FIG. 6 and FIG. 7, an exemplary method for querying instances with one or more gene expression signatures will now be described. Broadly, the method comprises querying a data architecture of stored instances (e.g., skin instances) with one or more gene signatures (e.g., an unhealthy skin gene expression signature), and applying a statistical method to determine how strongly the gene expression signature genes match the regulated genes in an instance.
The up-score and down-score have, for example, values between +1 and −1. […] In these embodiments, the gene expression signature comprises the combination of the up list and the down list. […]
The combination of the up-score and down-score is used to calculate an overall connectivity score for each instance, and in embodiments where up- and down-score ranges are set between −1 and +1, the connectivity score ranges from −2 to +2, and represents the strength of match between a query gene expression signature and the instance. The sign of the overall score is determined by whether the instance links positivity or negatively to the signature. […]

The test system of assay [2] is dandruff. The experiment in a line: Effect of ZPT-containing shampoo on the unhealthy skin gene expression signature in dandruff sufferers (Study 2). It counts as in vivo, human. The settings on record: dandruff subjects, scalp biopsies, three weeks of treatment. The protocol: Hierarchical Cluster Analysis of Dandruff vs. Non-Dandruff (Study 1): Genome-wide transcriptional profiles of the dandruff condition and healthy scalp were assessed using RNA extracted from full thickness scalp biopsies. […] Each row in FIG. 9 represents a single probe set and each column represents the group average of all subjects (not a single microarray experiment).
Effect of zinc pyrithione (ZPT) on the Unhealthy Skin Gene Expression Signature in Dandruff Sufferers (Study 2): We examined the effect of ZPT on the transcriptomic profile in dandruff sufferers during a course of treatment known to resolve the key symptoms of the condition (flake and itch) and substantially restore the scalp skin histology and cell surface biomarker profile to a healthy state. In this study, we were able to replicate our key transcriptomic findings from Study 1 in a second study population. It is notable that using the expression levels of the same 400 probe sets in the unhealthy gene expression signature, which all satisfied the p<0.05 criterion, hierarchical cluster analysis again clearly separated Dandruff from Non-dandruff (see All Dandruff Baseline vs. Non-Dandruff Baseline). […] This underscores the fundamental importance of the gene products associated with this signature to skin homeostasis.

As for `CC1=C(/C=C/C(C)=C/C=C/C(C)=C/C(=O)O)C(C)(C)CCC1` [All-trans retinoic acid], the “rank of instances in C-map query (linkage score)” value in assay [1] is on record as “strongest negative linkage scores”.
On the same count and under the same terms, then `NC(=O)c1cccnc1` [Nicotinamide], with “strongest negative linkage scores”.
As to zinc pyrithione [zinc pyriothione], in assay [2], the “gene expression profile (400 probe sets of unhealthy skin signature), hierarchical cluster analysis” value is “reversal of the unhealthy skin gene expression signature”.
